Data as given in US9018388B2, “Pesticidal compositions and processes related thereto” (Dow AgroSciences LLC, priority 2012, dated 2015).
Read-outs that look alike come from different tables or passages of the source.

Experiments:
[1] = tested on: Beet Armyworm (BAW) (Spodoptera exigua); experiment: Bioassay on beet armyworm (BAW), 128-well diet tray assay; type: in vivo; conditions: Spodoptera exigua, read-out: % Mortality BAW 50 μg/cm^2
Procedure: (§1) Bioassays on Beet Armyworm (“BAW”) and Corn Earworm (“CEW”)
(§2) Certain molecules disclosed in this document were tested against BAW and CEW using procedures described in the following examples. In the reporting of the results, the “BAW & CEW Rating Table” was used (See Table Section).
Bioassays on BAW (Spodoptera exigua)
Bioassays on BAW were conducted using a 128-well diet tray assay. One to five second instar BAW larvae were placed in each well (3 mL) of the diet tray that had been previously filled with 1 mL of artificial diet to which 50 μg/cm^2 of the test compound (dissolved in 50 μL of 90:10 acetone-water mixture) had been applied (to each of eight wells) and then allowed to dry. Trays were covered with a clear self-adhesive cover and held at 25° C., 14:10 light-dark for five to seven days. Percent mortality was recorded for the larvae in each well; activity in the eight wells was then averaged. The results are indicated in the table entitled “Table 5: Biological Results” (See Table Section).

[2] = tested on: Corn Earworm (CEW) (Helicoverpa zea); experiment: Bioassay on corn earworm (CEW), 128-well diet tray assay; type: in vivo; conditions: Helicoverpa zea, read-out: % Mortality CEW 50 μg/cm^2
Procedure: as §1, §2
Bioassays on CEW (Helicoverpa zea)
Bioassays on CEW were conducted using a 128-well diet tray assay. One to five second instar CEW larvae were placed in each well (3 mL) of the diet tray that had been previously filled with 1 mL of artificial diet to which 50 μg/cm^2 of the test compound (dissolved in 50 μL of 90:10 acetone-water mixture) had been applied (to each of eight wells) and then allowed to dry. Trays were covered with a clear self-adhesive cover and held at 25° C., 14:10 light-dark for five to seven days. Percent mortality was recorded for the larvae in each well; activity in the eight wells was then averaged. The results are indicated in the table entitled “Table 5: Biological Results” (See Table Section).

Row | SMILES | pest or weed control at 50 µg/cm2, 50 µg/cm2 ([1]; Beet armyworm, 50 μg/cm^2) | pest or weed control at 50 µg/cm2, 50 µg/cm2 ([2]; Corn earworm, 50 μg/cm^2) | pest or weed control at 50 µg/cm2, 50 µg/cm2 [1] | pest or weed control at 50 µg/cm2, 50 µg/cm2 [2]
1 | FC(F)(F)Oc1ccc(-n2cnc(-c3ccc(/C=N/N=C4\SCCCN4c4c(Cl)cccc4Cl)cc3)n2)cc1 [Compound 187C] | 50 to 100% | 50 to 100% | – | –
2 | Fc1cccc(F)c1N1CCS/C1=N\N=C\c1ccc(-c2ncn(-c3ccc(OC(F)(F)F)cc3)n2)cc1 [Compound 148C] | 50 to 100% | 50 to 100% | – | –
3 | Cc1cccc(C)c1N1C(=O)CS/C1=N\N=C\c1ccc(-c2ncn(-c3ccc(OC(F)(F)C(F)(F)F)cc3)n2)cc1 [Compound 100C] | 50 to 100% | 50 to 100% | – | –
4 | COc1cc(C)c(/N=C(/N/N=C/c2ccc(-c3ncn(-c4ccc(OC(F)(F)F)cc4)n3)cc2)SCC(=O)O)c(C)c1 [Compound 48C] | 50 to 100% | 50 to 100% | – | –
5 | CC1CCS/C(=N\N=C\c2ccc(-c3ncn(-c4ccc(OC(F)(F)F)cc4)n3)cc2)N1c1ccccc1C(C)(C)C (centres unmarked) [Compound 222C] | 50 to 100% | 50 to 100% | – | –
6 | COc1ccc(N2C(=O)CS/C2=N\N=C\c2ccc(-c3ncn(-c4ccc(OC(F)(F)F)cc4)n3)cc2)c(C)c1 [Compound 114C] | 50 to 100% | 50 to 100% | – | –
7 | Cc1cccc(C)c1N1C(=O)CCS/C1=N\N=C\c1ccc(-c2ncn(-c3ccc(OC(F)(F)F)cc3)n2)cc1 [Compound 223C] | 50 to 100% | 50 to 100% | – | –
8 | CC(C)c1cc(F)ccc1N1CS/C1=N\N=C\c1ccc(-c2ncn(-c3ccc(C(F)(F)F)cc3)n2)cc1 [Compound 261C] | 50 to 100% | 50 to 100% | – | –
9 | CCC(C)c1ccccc1N1C(=O)CCS/C1=N\N=C\c1ccc(-c2ncn(-c3ccc(OC(F)(F)F)cc3)n2)cc1 (centres unmarked) [Compound 230C] | 50 to 100% | 50 to 100% | – | –
10 | CC(C)c1ccccc1N1CCCS/C1=N\N=C\c1ccc(-c2ncn(-c3ccc(C(F)(F)F)cc3)n2)cc1 [Compound 179C] | 50 to 100% | 50 to 100% | – | –
11 | Cc1cccc(Cl)c1N1C(=O)CCS/C1=N\N=C\c1ccc(-c2ncn(-c3ccc(OC(F)(F)F)cc3)n2)cc1 [Compound 227C] | 50 to 100% | 50 to 100% | – | –
12 | FC(F)Oc1ccccc1N1CCCS/C1=N\N=C\c1ccc(-c2ncn(-c3ccc(OC(F)(F)F)cc3)n2)cc1 [Compound 200C] | 50 to 100% | 50 to 100% | – | –
13 | CCOc1ccccc1N1CCCS/C1=N\N=C\c1ccc(-c2ncn(-c3ccc(OC(F)(F)F)cc3)n2)cc1 [Compound 208C] | 50 to 100% | 50 to 100% | – | –
14 | Cc1cc(C)c(N2CCCS/C2=N\N=C\c2ccc(-c3ncn(-c4ccc(OC(F)(F)F)cc4)n3)cc2)c(C)c1 [Compound 184C] | 50 to 100% | 50 to 100% | – | –
15 | CC(C)c1ccc(F)cc1N1CS/C1=N\N=C\c1ccc(-c2ncn(-c3ccc(C(F)(F)F)cc3)n2)cc1 [Compound 255C] | 50 to 100% | 50 to 100% | – | –
16 | CC1CCS/C(=N\N=C\c2ccc(-c3ncn(-c4ccc(OC(F)(F)F)cc4)n3)cc2)N1c1ccccc1OC(F)F (centres unmarked) [Compound 221C] | 50 to 100% | 50 to 100% | – | –
17 | CC(C)=Cc1ccccc1N1CCCS/C1=N\N=C\c1ccc(-c2ncn(-c3ccc(OC(F)(F)F)cc3)n2)cc1 [Compound 197C] | 50 to 100% | 50 to 100% | – | –
18 | O=C1CS/C(=N\N=C\c2ccc(-c3ncn(-c4ccc(OC(F)(F)F)cc4)n3)cc2)N1c1c(Br)cccc1Br [Compound 99C] | 50 to 100% | 50 to 100% | – | –
19 | CCCc1ccccc1N1C(=O)C(C)S/C1=N\N=C\c1ccc(-c2ncn(-c3ccc(OC(F)(F)F)cc3)n2)cc1 (centres unmarked) [Compound 128C] | 50 to 100% | 50 to 100% | – | –
20 | O=C1CS/C(=N\N=C\c2ccc(-c3ncn(-c4ccc(OC(F)(F)F)cc4)n3)cc2)N1c1ccccc1Cl [Compound 106C] | 50 to 100% | 50 to 100% | – | –

Row | SMILES | pest or weed control at 50 µg/cm2, 50 µg/cm2 ([1]; Beet armyworm, 50 μg/cm^2) | pest or weed control at 50 µg/cm2, 50 µg/cm2 ([2]; Corn earworm, 50 μg/cm^2) | pest or weed control at 50 µg/cm2, 50 µg/cm2 [1] | pest or weed control at 50 µg/cm2, 50 µg/cm2 [2]
21 | Cc1cccc(C)c1N1CS/C1=N\N=C\c1ccc(-c2ncn(-c3ccc(OC(F)(F)F)cc3)n2)cc1 [Compound 241C] | 50 to 100% | 50 to 100% | – | –
22 | CC1CS/C(=N\N=C\c2ccc(-c3ncn(-c4ccc(OC(F)(F)F)cc4)n3)cc2)N1c1c(F)cccc1F (centres unmarked) [Compound 159C] | 50 to 100% | 50 to 100% | – | –
23 | COc1cc(C)c(N2C(=O)CS/C2=N\N=C\c2ccc(-c3ncn(-c4ccc(OC(F)(F)F)cc4)n3)cc2)c(C)n1 [Compound 101C] | 50 to 100% | 50 to 100% | – | –
24 | Cc1cccc(C)c1/N=C(/N/N=C/c1ccc(-c2ncn(-c3ccc(OC(F)(F)F)cc3)n2)cc1)SCC#C[Si](C)(C)C [Compound 9C] | – | – | 50 to 100% | 50 to 100%
25 | Fc1cccc(F)c1N1CS/C1=N\N=C\c1ccc(-c2ncn(-c3ccc(OC(F)(F)F)cc3)n2)cc1 [Compound 245C] | 50 to 100% | 50 to 100% | – | –
26 | COCOCC(C)C(=O)OCS/C(=N\c1c(C)cccc1C)N/N=C/c1ccc(-c2ncn(-c3ccc(OC(F)(F)F)cc3)n2)cc1 (centres unmarked) [Compound 41C] | 50 to 100% | 50 to 100% | – | –
27 | CC(C)c1cc(F)ccc1N1CS/C1=N\N=C\c1ccc(-c2ncn(-c3ccc(OC(F)(F)F)cc3)n2)cc1 [Compound 252C] | 50 to 100% | 50 to 100% | – | –
28 | O=C1CS/C(=N\N=C\c2ccc(-c3ncn(-c4ccc(OC(F)(F)F)cc4)n3)cc2)N1c1c(F)cccc1F [Compound 89C] | 50 to 100% | 50 to 100% | – | –
29 | CCC(C)c1ccccc1N1/C(=N/N=C/c2ccc(-c3ncn(-c4ccc(OC(F)(F)F)cc4)n3)cc2)SCC1C (centres unmarked) [Compound 163C] | 50 to 100% | 50 to 100% | – | –
30 | Cc1cccc(C)c1N1C(=O)CS/C1=N\N=C\c1ccc(-c2cnn(-c3ccc(OC(F)(F)F)cc3)c2)cc1 [Compound 104C] | 50 to 100% | 50 to 100% | – | –
31 | COc1cc(C)c(-n2c(C(=O)O)cs/c2=N\N=C\c2ccc(-c3ncn(-c4ccc(OC(F)(F)F)cc4)n3)cc2)c(C)c1 [Compound 80C] | 50 to 100% | 50 to 100% | – | –
32 | FC(F)(F)Oc1ccc(-n2cnc(-c3ccc(/C=N/N=C4\SCN4c4c(Cl)cccc4Cl)cc3)n2)cc1 [Compound 244C] | 50 to 100% | 50 to 100% | – | –
33 | CC(F)(F)Oc1ccccc1N1C(=O)CCS/C1=N\N=C\c1ccc(-c2ncn(-c3ccc(OC(F)(F)F)cc3)n2)cc1 [Compound 229C] | 50 to 100% | 50 to 100% | – | –
34 | COc1cc(C)c(N2C(=O)CSC2=NN=Cc2ccc(-c3ncn(-c4ccc(OC(F)(F)F)cc4)n3)cc2)c(C)c1 (stereo in doubt) [Compound 69C, (Z)-3-(4-methoxy-2,6-dimethylphenyl)-2-((E)-(4-(1-(4-(trifluoromethoxy)phenyl)-1H-1,2,4-triazol-3-yl)benzylidene)hydrazono)thiazolidin-4-one] | 50 to 100% | 50 to 100% | – | –
35 | CCc1ccccc1N1CS/C1=N\N=C\c1ccc(-c2ncn(-c3ccc(OC(F)(F)F)cc3)n2)cc1 [Compound 254C] | 50 to 100% | 50 to 100% | – | –
36 | CC1S/C(=N\N=C\c2ccc(-c3ncn(-c4ccc(OC(F)(F)F)cc4)n3)cc2)N(c2c(Cl)cccc2Cl)C1=O (centres unmarked) [Compound 129C] | 50 to 100% | 50 to 100% | – | –
37 | CC1CCS/C(=N\N=C\c2ccc(-c3ncn(-c4ccc(OC(F)(F)F)cc4)n3)cc2)N1c1c(Cl)cccc1C(F)(F)F (centres unmarked) [Compound 217C] | 50 to 100% | 50 to 100% | – | –
38 | CC(C)c1ccc(F)cc1N1CS/C1=N\N=C\c1ccc(-c2ncn(-c3ccc(C(F)(F)C(F)(F)F)cc3)n2)cc1 [Compound 260C] | 50 to 100% | 50 to 100% | – | –
39 | FC(F)(F)Oc1ccc(-n2cnc(-c3ccc(/C=N/N=C4\SCCCN4c4ccccc4OC(F)(F)F)cc3)n2)cc1 [Compound 199C] | 50 to 100% | 50 to 100% | – | –
40 | COc1cccc(N2CCCS/C2=N\N=C\c2ccc(-c3ncn(-c4ccc(OC(F)(F)F)cc4)n3)cc2)c1 [Compound 206C] | 50 to 100% | 50 to 100% | – | –
